Where “and” joins values, the source holds several entries; their conditions need not be identical. Equal entries are not always repeated. Records with an inconclusive call do not appear. Calls of active or inactive are those of the source. The rule behind the calls is not given here.

The test system of the assay is C. albicans growth with fluconazole, fluorescence. The assay is described as follows: C. albicans growth with fluconazole, confirmation, fluorescence, retest (AID 2467).

Consider `c1cnc2c(c1)ccc1cccnc12`, for which the EC50 is > 3800 nM (inactive).

Take `NC(=NCCCCCCN=C(N)/N=C(\N)Nc1ccc(Cl)cc1)/N=C(\N)Nc1ccc(Cl)cc1`: the EC50 was 635 nM and 308 nM and 649 nM.

For the origin of these results see PubChem BioAssay AID2467 (Broad Institute, 2010).
